Reference: patent US20250188069A1, “COMPOUNDS AND METHODS FOR DEGRADING CASEIN KINASE 1 ALPHA” (PIN THERAPEUTICS, INC., priority 2022, published 2025)
Structures can show the parent of a compound that is named as a salt.

test system: MV-4-11 cells; assay: AML cell viability assay (RealTime-Glo); assay type: cell-based; conditions: Homo sapiens, MV4-11, 44 h, read-out: Cell viability classification

Question: `O=C1CCC(N2Cc3c(cccc3N(CCC3CC3)[C@H]3CC[C@H](Nc4ccccn4)CC3)C2=O)C(=O)N1` (some centres unmarked) [Compound 576, 3-{4-[(2-cyclopropylethyl)[(1r,4r)-4-(pyridin-2-ylamino)cyclohexyl]amino]-1-oxo-3H-isoindol-2-yl}piperidine-2,6-dione] was tested. Which IC50 did it give?
Answer: 100 to 1000 nM

same assay, conditions: Homo sapiens, MV4-11; IC50 class; MV-4-11 cells, RealTime-Glo after 44 hrs of treatment (TABLE 1); read-out: Cell viability classification

Question: How did the IC50 turn out when `CCCN(CCN)c1cccc2c1CN(C1CCC(=O)NC1=O)C2=O` (centres unmarked) [Compound 49, 3-(4-((2-aminoethyl)(propyl)amino)-1-oxoisoindolin-2-yl)piperidine-2,6-dione] was run?
Answer: > 1000 nM

Question: How did the IC50 turn out when `CCCCCN(c1cccc2c1CN(C1CCC(=O)NC1=O)C2=O)[C@H]1CCC[C@@H](N)C1` (stereo partly drawn) [Compound 328, 3-(4-(((1S,3R)-3-aminocyclohexyl)(pentyl)amino)-1-oxoisoindolin-2-yl)piperidine-2,6-dione] was run?
Answer: < 100 nM

Question: With `N[C@H]1CC[C@H](N(Cc2ccccc2)c2cccc3c2CN(C2CCC(=O)NC2=O)C3=O)CC1` (some centres unmarked) [Compound 349, 3-(4-(((1r,4r)-4-aminocyclohexyl)(benzyl)amino)-1-oxoisoindolin-2-yl)piperidine-2,6-dione] as the molecule, how does the IC50 read?
Answer: > 1000 nM

Question: With `N[C@H]1CC[C@H](N(CCCC2CCOC2)c2cccc3c2CN(C2CCC(=O)NC2=O)C3=O)CC1` (some centres unmarked) [Compound 345, 3-(4-(((1r,4r)-4-aminocyclohexyl)(3-(tetrahydrofuran-3-yl)propyl)amino)-1-oxoisoindolin-2-yl)piperidine-2,6-dione] as the molecule, how does the IC50 read?
Answer: 100 to 1000 nM

Question: `CC(C)(C)CCN(c1cccc2c1CN(C1CCC(=O)NC1=O)C2=O)[C@H]1CC[C@@H](CN)CC1` (some centres unmarked) [Compound 332, 3-(4-(((1s,4s)-4-(aminomethyl)cyclohexyl)(3,3-dimethylbutyl)amino)-1-oxoisoindolin-2-yl)piperidine-2,6-dione] was tested. Which IC50 did it give?
Answer: < 100 nM

Question: Which IC50 does the source give for `C[C@H]1CC[C@@H](N(c2cccc3c2CN(C2CCC(=O)NC2=O)C3=O)[C@@H]2CC[C@H](N)C2)CC1` (stereo partly drawn) [Compound 354, 3-(4-(((1R,3S)-3-aminocyclopentyl)((1s,4S)-4-methylcyclohexyl)amino)-1-oxoisoindolin-2-yl)piperidine-2,6-dione] here?
Answer: > 1000 nM

Question: How did the IC50 turn out when `O=C1CCC(N2Cc3c(cccc3N(CCCC3CCOCC3)[C@@H]3CC[C@H](NCC4CC4)C3)C2=O)C(=O)N1` (stereo partly drawn) [Compound 356, 3-(4-(((1R,3S)-3-((cyclopropylmethyl)amino)cyclopenty 1)(3-(tetrahydro-2H-pyran-4-yl)propyl)amino)-1-oxoisoindolin-2-yl)piperidine-2,6-dione] was run?
Answer: < 100 nM

Question: With `NC(=O)[C@H]1CC[C@@H](N(CCC2CC2)c2cccc3c2CN(C2CCC(=O)NC2=O)C3=O)C1` (stereo partly drawn) [Compound 359, (1S,3R)-3-((2-cyclopropylethyl)(2-(2,6-dioxopiperidin-3-yl)-1-oxoisoindolin-4-yl)amino)cyclopentane-1-carboxamide] as the molecule, how does the IC50 read?
Answer: < 100 nM

Question: How did the IC50 turn out when `CCCCCN(c1cccc2c1CN(C1CCC(=O)NC1=O)C2=O)[C@H]1CCC[C@H](N)C1` (stereo partly drawn) [Compound 327, 3-(4-(((1S,3S)-3-aminocyclohexyl)(pentyl)amino)-1-oxoisoindolin-2-yl)piperidine-2,6-dione] was run?
Answer: < 100 nM

Question: With `N[C@H]1CC[C@@H](N(CCCC2CCOCC2)c2cccc3c2CN(C2CCC(=O)NC2=O)C3=O)C1` (stereo partly drawn) [Compound 353, 3-(4-(((1R,3S)-3-aminocyclopentyl)(3-(tetrahydro-2H-pyran-4-yl)propyl)amino)-1-oxoisoindolin-2-yl)piperidine-2,6-dione] as the molecule, how does the IC50 read?
Answer: 100 to 1000 nM

same assay, conditions: Homo sapiens, MV4-11; IC50 class; MV-4-11 cells, RealTime-Glo after 44 hrs of treatment (TABLE 2); read-out: Cell viability classification

Question: `NCCCCN(C[C@H]1CC[C@H](N)CC1)c1cccc2c1CN(C1CCC(=O)NC1=O)C2=O` (some centres unmarked) [Compound 107, 3-(4-((4-aminobutyl)(((1r,4r)-4-aminocyclohexyl)methyl)amino)-1-oxoisoindolin-2-yl)piperidine-2,6-dione, HCl] was tested. Which IC50 did it give?
Answer: 100 to 1000 nM

Question: `CCCCCN(CCCCNC(=O)CNC)c1cccc2c1CN(C1CCC(=O)NC1=O)C2=O` (centres unmarked) [Compound 181, N-(4-((2-(2,6-dioxopiperidin-3-yl)-1-oxoisoindolin-4-yl)(pentyl)amino)butyl)-2-(methylamino)acetamide] was tested. Which IC50 did it give?
Answer: 100 to 1000 nM

Question: `CCCCCN(C[C@H]1CC[C@H](N)CC1)c1cccc2c1CN(C1CCC(=O)NC1=O)C2=O` (some centres unmarked) [Compound 92, 3-(4-((((1r,4r)-4-aminocyclohexyl)methyl)(pentyl)amino)-1-oxoisoindolin-2-yl)piperidine-2,6-dione, HCl] was tested. Which IC50 did it give?
Answer: < 100 nM

Question: With `NCCCCN(c1cccc2c1CN(C1CCC(=O)NC1=O)C2=O)[C@H]1CC[C@H](CN)CC1` (stereo partly drawn) [Compound 105, 3-(4-((4-aminobutyl)((1R,4R)-4-(aminomethyl)cyclohexyl)amino)-1-oxoisoindolin-2-yl)piperidine-2,6-dione, 2HCl] as the molecule, how does the IC50 read?
Answer: 100 to 1000 nM

Question: With `NCCCCN(c1cccc2c1CN(C1CCC(=O)NC1=O)C2=O)[C@H]1CC[C@@H](N)CC1` (stereo partly drawn) [Compound 102, 3-(4-((4-aminobutyl)((1S,4S)-4-aminocyclohexyl)amino)-1-oxoisoindolin-2-yl)piperidine-2,6-dione dihydrochloride] as the molecule, how does the IC50 read?
Answer: 100 to 1000 nM

Question: How did the IC50 turn out when `CC(C)(CN)CCCN(CCCCN)c1cccc2c1CN(C1CCC(=O)NC1=O)C2=O` (centres unmarked) [Compound 126, 3-(4-((5-amino-4,4-dimethylpentyl)(4-aminobutyl)amino)-1-oxoisoindolin-2-yl)piperidine-2,6-dione dihydrochloride] was run?
Answer: < 100 nM

same assay, conditions: Homo sapiens, MV4-11; IC50 class; MV-4-11 cells, RealTime-Glo after 44 hrs of treatment (TABLE 4); read-out: Cell viability classification

Question: With `O=C1CCC(N2Cc3c(cccc3N(CCCCC(F)(F)F)[C@H]3CC[C@@H](NCC4(C(F)(F)F)CC4)CC3)C2=O)C(=O)N1` (some centres unmarked) [Compound 628A, 3-(1-oxo-4-{[(1s,4s)-4-({[1-(trifluoromethyl)cyclopropyl]methyl}amino)cyclohexyl](5,5,5-trifluoropentyl)amino}-3H-isoindol-2-yl)piperidine-2,6-dione; trifluoroacetate] as the molecule, how does the IC50 read?
Answer: > 1000 nM

Question: Which IC50 does the source give for `O=C1CCC(N2Cc3c(cccc3N(CCC3(C(F)(F)F)CC3)[C@H]3CC[C@H](NC4CC(F)(F)C4)CC3)C2=O)C(=O)N1` (some centres unmarked) [Compound 554, 3-(4-(((1r,4r)-4-((3,3-difluorocyclobutyl)amino)cyclohexyl)(2-(1-(trifluoromethyl)cyclopropyl)ethyl)amino)-1-oxoisoindolin-2-yl)piperidine-2,6-dione formate] here?
Answer: 100 to 1000 nM

Question: `O=C1CCC(N2Cc3c(cccc3N(CCC3CC3)[C@H]3CC[C@H](NCC(=O)N4CCC(F)(F)CC4)CC3)C2=O)C(=O)N1` (some centres unmarked) [Compound 561, 3-{4-[(2-cyclopropylethyl)[(1r,4r)-4-{[2-(4,4-difluoropiperidin-1-yl)-2-oxoethyl]amino}cyclohexyl]amino]-1-oxo-3H-isoindol-2-yl}piperidine-2,6-dione] was tested. Which IC50 did it give?
Answer: < 100 nM

Question: How did the IC50 turn out when `O=C1CCC(N2Cc3c(cccc3N(CCC3(C(F)(F)F)CC3)[C@H]3CC[C@@H](NC4CC(F)(F)C4)CC3)C2=O)C(=O)N1` (some centres unmarked) [Compound 554A, 3-(4-(((1s,4s)-4-((3,3-difluorocyclobutyl)amino)cyclohexyl)(2-(1-(trifluoromethyl)cyclopropyl)ethyl)amino)-1-oxoisoindolin-2-yl)piperidine-2,6-dione] was run?
Answer: 100 to 1000 nM

Question: With `O=C1CCC(N2Cc3c(cccc3N(CCC3CC3)[C@H]3CC[C@@H](NCC4(F)COC4)CC3)C2=O)C(=O)N1` (some centres unmarked) [Compound 616A, 3-{4-[(2-cyclopropylethyl)[(1s,4s)-4-{[(3-fluorooxetan-3-yl)methyl]amino}cyclohexyl]amino]-1-oxo-3H-isoindol-2-yl}piperidine-2,6-dione; trifluoroacetate] as the molecule, how does the IC50 read?
Answer: 100 to 1000 nM

Question: `O=C1CCC(N2Cc3c(cccc3N(CCC3CC3)[C@H]3CC[C@H](c4nnc[nH]4)CC3)C2=O)C(=O)N1` (some centres unmarked) [Compound 574, 3-{4-[(2-cyclopropylethyl)[(1r,4r)-4-(4H-1,2,4-triazol-3-yl)cyclohexyl]amino]-1-oxo-3H-isoindol-2-yl}piperidine-2,6-dione; formate] was tested. Which IC50 did it give?
Answer: 100 to 1000 nM

same assay, conditions: Homo sapiens, MV4-11; IC50 class; MV-4-11 cells, RealTime-Glo after 44 hrs of treatment (TABLE 5); read-out: Cell viability classification

Question: `O=C1CCC(N2Cc3c(cccc3N(CC3CCC3)[C@H]3CC[C@H](NCC4(C(F)(F)F)CC4)CC3)C2=O)C(=O)N1` (some centres unmarked) [Compound 654, 3-(4-((cyclobutylmethyl)((1r,4r)-4-(((1-(trifluoromethyl)cyclopropyl)methyl)amino)cyclohexyl)amino)-1-oxoisoindolin-2-yl)piperidine-2,6-dione] was tested. Which IC50 did it give?
Answer: 100 to 1000 nM

Question: Which IC50 does the source give for `O=C1CCC(N2Cc3c(cccc3N(CCC3CC3)[C@H]3CC[C@H](N4CCC5(C4)CC5(F)F)CC3)C2=O)C(=O)N1` (some centres unmarked) [Compound 711, 3-(4-((2-cyclopropylethyl)((1r,4r)-4-(1,1-difluoro-5-azaspiro[2.4]heptan-5-yl)cyclohexyl)amino)-1-oxoisoindolin-2-yl)piperidine-2,6-dione 2,2,2-trifluoroacetate] here?
Answer: 100 to 1000 nM

Question: For `O=C1CCC(N2Cc3c(cccc3N(CCC3CC3)[C@H]3CC[C@@H](N4CCC(F)(F)CC4)CC3)C2=O)C(=O)N1` (some centres unmarked) [Compound 716A, 3-(4-((2-cyclopropylethyl)((1s,4s)-4-(4,4-difluoropiperidin-1-yl)cyclohexyl)amino)-1-oxoisoindolin-2-yl)piperidine-2,6-dione tris(2,2,2-trifluoroacetate)], which IC50 is on record?
Answer: > 1000 nM

Question: `O=C1CCC(N2Cc3c(cccc3N(CC3CCC3)[C@H]3CC[C@H](NCCC(F)(F)F)CC3)C2=O)C(=O)N1` (some centres unmarked) [Compound 649, 3-{4-[(cyclobutylmethyl)[(1r,4r)-4-[(3,3,3-trifluoropropyl)amino]cyclohexyl]amino]-1-oxo-3H-isoindol-2-yl}piperidine-2,6-dione trifluoroacetic acid] was tested. Which IC50 did it give?
Answer: 100 to 1000 nM

Question: With `O=C1CCC(N2Cc3c(cccc3N(CCC3CC3)[C@H]3CC[C@@H](CNCCC(F)(F)F)CC3)C2=O)C(=O)N1` (some centres unmarked) [Compound 708A, 3-(4-((2-cyclopropylethyl)((1s,4s)-4-(((3,3,3-trifluoropropyl)amino)methyl)cyclohexyl)amino)-1-oxoisoindolin-2-yl)piperidine-2,6-dione] as the molecule, how does the IC50 read?
Answer: < 100 nM

Question: With `O=C1CCC(N2Cc3c(cccc3N(CCC3CC3)C3CCC4(CC3)COCCN4)C2=O)C(=O)N1` (centres unmarked) [Compound 679, 3-(4-((2-cyclopropylethyl)(4-oxa-1-azaspiro[5.5]undecan-9-yl)amino)-1-oxoisoindolin-2-yl)piperidine-2,6-dione] as the molecule, how does the IC50 read?
Answer: 100 to 1000 nM
